2 compounds from US11279726B2, “Norbornene-based amphipathic compound and utilization thereof” (Industry-University Cooperation Foundation Hanyang …, priority 2017, dated 2022) can be followed below.

Entries after “also recorded” stand apart in the source; their conditions may differ.

Data set [1] deals with T1, uric acid-xanthine/H+ symporter (UapA) (Emericella nidulans, UniProt Q07307, G411V).
T1 construct: made in house; host or cells: Saccharomyces cerevisiae FGY217
Kind of data set: UapA extraction and thermal stability by fluorescence size exclusion chromatography (FSEC). The arrangement: species or system Aspergillus nidulans. The note with it: 1.0 wt % amphiphile; for Retention of monodispersed UapA-GFP peak after heating (FSEC): 10 minutes at 40° C., compared with DDM. The protocol: An experiment for measuring the structural stability of uric acid-xanthine/H+ symporter (UapA) isolated from Aspergillus nidulans using NBMs was performed. The structural stability of UapA was evaluated using […].
Specifically, UapAG411VΔ1-11 (hereinafter, referred to as “UapA”) was expressed as GFP fusion in Saccharomyces cerevisiae FGY217 strain and isolated in a sample buffer (20 mM Tris (pH 7.5), 150 mM NaCl, 0.03% DDM, 0.6 mM xanthine) according to the method described in the literature written by J. Leung et al. (Mol. Membr. Biol. 2013, 30, 32-42). Membranes containing UapA were resuspended in PBS, 10 mM imidazole pH 8.0, 150 mM NaCl, 10% glycerol, and the protein concentration was measured. The membranes were adjusted to a concentration of 1 mg·ml^−1 and 1 ml aliquots were individually incubated with DDM or NBMs at a final amphiphilic material concentration of 1.0 wt % for 10 minutes at 40° C. 100 μl aliquots were removed from each tube, and a fluorescence reading was taken for each sample before and after ultracentrifugation at 150,000 g for 10 minutes to remove insoluble material. The remaining soluble fraction for each condition was submitted to fluorescent size exclusion chromatography (FSEC) using a Superose 6 column (GE Healthcare) equilibrated with DDM.

Data set [2] concerns the target T2, human β2 adrenergic receptor (β2AR) (Homo sapiens, UniProt P07550).
T2 construct: made in house
Kind of data set: β2AR stability: [3H]-DHA ligand binding activity of solubilized receptor. The note with it: 0.2% amphiphile, room temperature, 3 days (7 days for receptor extracted with the amphiphile). As to the method:
An experiment of measuring the stability of human β2 adrenergic receptor (β2AR) and G-protein-coupled receptor (GPCR) for NBMs was carried out. That is, the receptor was extracted from the cell membranes by DDM and purified in the same amphiphilic compound. The DDM-purified receptor was diluted in individual DDM- or NBM-containing buffers to adjust the final compound concentration to be CMC+0.2 wt %. The receptor stability was assessed by measuring ligand binding activity using [3H]-DHA.
To measure long-term stability of human β2AR with NBMs (D-NBM-C11 and X-NBM-C11) showing an excellent ligand binding activity of the receptor in the previous experiment, a radio-labeled ligand binding experiment was performed by the following method. β2AR was purified using 0.1% DDM (D. M. Rosenbaum et al., Science, 2007, 318, 1266-1273), and finally concentrated to approximately 10 mg/ml (approximately 200 μM). A main binding mixture containing 10 nM [^3H]-DHA supplemented with 0.5 mg/ml BSA was prepared in 0.2% amphiphilic compound (DDM or NBMs (D-NBM-C11 and X-NBM-C11)) using β2AR purified with DDM. The receptor purified with DDM or NBMs was incubated with 10 nM [^3H]-DHA at room temperature for 30 minutes. The mixture was loaded onto a G-50 column, the fractions were collected in a 1 ml binding buffer (20 mM HEPES pH 7.5, 100 mM NaCl, containing 0.5 mg/ml BSA and 20× CMC individual amphiphilic compounds). In addition, each fraction was supplemented with a 15 ml scintillation fluid, and receptor-bound [^3H]-DHA was measured using a scintillation counter (Beckman) at regular intervals for 3 days. The binding capacity of [^3H]-DHA was shown as a bar chart (FIG. 11a).
In addition, β2AR was extracted from the membrane using 1.0 wt % of DDM or X-NBM-C11 and purified at 0.2 wt % for the same individual amphiphilic compounds. Structural stability of the receptor was assessed by ligand binding activity, which was measured with sample aliquots at regular intervals during 7-day incubation at room temperature. Each experiment was carried out in triplicate (FIG. 12b).

The test system of data set [3] is leucine transporter (LeuT). Kind of data set: LeuT stability: [3H]-Leu substrate binding by scintillation proximity assay (SPA). On the set-up: species or system Aquifex aeolicus. The note with it: t=12 day, CMC+0.04 wt %, room temperature. The protocol:
An experiment for measuring the stability of LeuT protein with NBMs was performed. Concentrations of individual amphiphilic compounds were (a) CMC+0.04 wt % and (b) CMC+0.2 wt %, and the stability of the LeuT protein was evaluated by measuring a LeuT substrate binding activity using [3H]-Leu via scintillation proximity assay (SPA). The measurement was performed at regular intervals during 12-day incubation at room temperature. Specifically, a wild-type leucine transporter (LeuT) derived from thermophilic bacteria Aquifex aeolicus was purified by the method described previously (G. Deckert et al., Nature 1998, 392, 353-358). LeuT was expressed in E. coli C41 (DE3) transformed with pET16b encoding C-terminally 8× His-tagged transporter (the expression plasmid was provided by Dr E. Gouaux, Vollum Institute, Portland, Oreg., USA). […] Protein samples were stored for 12 days at room temperature, and centrifuged at predetermined points of time, the substrate ([3H]-leucine)-binding activity of the transporter was determined via SPA by taking advantage of protein properties. […] Total [3H]-leucine binding for the respective samples was measured using a MicroBeta liquid scintillation counter (Perkin Elmer).
On the technique in general: Scintillation proximity formats need no separation of bound from free tracer.

The nature of data set [4]: Critical micelle concentration by fluorescent staining with diphenylhexatriene (DPH). To be noted: aqueous solution. The data set is classed as physicochemical. The protocol:
A method for measuring CMC is not particularly limited, and a method widely known in the art may be used, for example, by fluorescence staining with diphenylhexatriene (DPH).
To identify the characteristics of NBMs synthesized in Preparation Example 1 to 6 according to the synthetic method of Example 1, molecular weights (MWs) of NBMs, critical micelle concentrations (CMCs) and hydrodynamic radii (Rh) of the micelles were measured.
Specifically, the critical micelle concentrations (CMCs) were measured by fluorescent staining with diphenylhexatriene (DPH), and the hydrodynamic radii (Rh) of the micelle formed with individual agents (1.0 wt %) were measured by dynamic light scattering (DLS).

T2 sequence (P07550 whole entry): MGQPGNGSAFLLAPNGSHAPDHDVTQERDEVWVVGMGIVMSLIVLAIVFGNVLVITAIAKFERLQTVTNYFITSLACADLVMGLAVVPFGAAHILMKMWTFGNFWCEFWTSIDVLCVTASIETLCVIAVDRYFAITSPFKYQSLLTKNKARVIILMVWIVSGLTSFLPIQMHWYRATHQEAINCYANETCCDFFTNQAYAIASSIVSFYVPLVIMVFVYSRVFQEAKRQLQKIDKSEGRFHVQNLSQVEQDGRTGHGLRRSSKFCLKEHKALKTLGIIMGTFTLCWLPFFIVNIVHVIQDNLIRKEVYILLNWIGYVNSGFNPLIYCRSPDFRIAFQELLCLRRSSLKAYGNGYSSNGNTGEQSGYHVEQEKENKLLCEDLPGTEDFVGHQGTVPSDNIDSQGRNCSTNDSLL
T1 sequence (Q07307 12-574 G411V): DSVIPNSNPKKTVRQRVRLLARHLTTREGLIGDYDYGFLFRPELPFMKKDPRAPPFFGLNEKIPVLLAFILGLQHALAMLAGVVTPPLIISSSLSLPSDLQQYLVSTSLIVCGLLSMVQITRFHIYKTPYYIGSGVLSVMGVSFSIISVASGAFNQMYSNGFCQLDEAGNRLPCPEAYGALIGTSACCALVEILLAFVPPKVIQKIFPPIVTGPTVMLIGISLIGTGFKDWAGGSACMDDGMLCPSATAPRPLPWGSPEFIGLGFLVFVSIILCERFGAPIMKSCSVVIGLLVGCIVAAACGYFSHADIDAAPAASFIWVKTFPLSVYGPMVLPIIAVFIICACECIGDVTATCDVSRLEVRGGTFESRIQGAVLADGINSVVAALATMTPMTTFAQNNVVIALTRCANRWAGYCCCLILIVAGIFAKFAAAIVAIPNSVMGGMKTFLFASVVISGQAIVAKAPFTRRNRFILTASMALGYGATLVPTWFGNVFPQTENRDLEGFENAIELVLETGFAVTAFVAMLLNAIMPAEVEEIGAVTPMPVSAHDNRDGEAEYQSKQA

On to `CCCCCCCCCCCOCC1C2CC([C@@H]1COCCCCCCCCCCC)[C@H](O[C@@H]1OC(CO)[C@@H](O[C@H]3OC(CO)[C@@H](O)C(O)C3O)C(O)C1O)C2O[C@@H]1OC(CO)[C@@H](O[C@H]2OC(CO)[C@@H](O)C(O)C2O)C(O)C1O` (stereo partly drawn) [D-NBM-C11], for which the “Retention of monodispersed UapA-GFP peak after heating (FSEC)” value in data set [1] was “a little better than DDM”. Besides, the “Long-term ligand binding activity of β2AR ([3H]-DHA)” value in data set [2] was “well retained”. In addition, the “LeuT substrate binding activity at the end of incubation” value in data set [3] is listed as “a little less than the initial activity of LeuT solubilized in DDM”. For the same compound, in data set [4], the “CMC” value is around 0.007 mM and the “CMC (wt %)” value was around 0.0008 wt %.
Take `CCCCCCCCCCCOCC1C2CC([C@H]1COCCCCCCCCCCC)[C@H](O[C@@H]1OC(CO)[C@@H](O[C@H]3OC(CO)[C@@H](O)C(O)C3O)C(O)C1O)C2O[C@@H]1OC(CO)[C@@H](O[C@H]2OC(CO)[C@@H](O)C(O)C2O)C(O)C1O` (some centres unmarked) [X-NBM-C11]: in data set [1], the “UapA extraction efficiency from the cell membrane” value is given as “almost quantitatively extract” and the “Retention of monodispersed UapA-GFP peak after heating (FSEC)” value is “substantially better than DDM”. Also, the “Long-term ligand binding activity of β2AR ([3H]-DHA)” value in data set [2] is “well retained; also recorded: highest ligand binding retention property”. In data set [3], the “LeuT substrate binding activity at the end of incubation” value was “a little less than the initial activity of LeuT solubilized in DDM”. Also, in data set [4], the “CMC” value is around 0.006 mM and the “CMC (wt %)” value is around 0.0007 wt %.
